# Measurements from the supplement of paper PMC11451515.
# Test system: SEM cells
# Assay: cell viability relative to DMSO control; higher = less cytotoxic
# Conditions: 48 h
# Outline: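 Library compounds in DMSO were pin-dosed into 1536-well plates (5 μl) holding NOMO1 or SEM (500 cells/well) or P12-Ichikawa (1000 cells/well) leukemia cells, across an 11-point threefold series of 47 μM to 0.79 nM. Each cell line had been adapted for at least four passages in each medium. CellTiter-Glo One luminescence was read after 48 h at 37°C. Viability is the per-plate percentage relative to DMSO wells, with cell-free wells as background.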
# [1] = HPLM + 10% dialyzed FBS, 0.000781 µM
# [2] = HPLM + 10% dialyzed FBS, 0.00234 µM
# [3] = HPLM + 10% dialyzed FBS, 0.00702 µM
# [4] = HPLM + 10% dialyzed FBS, 0.0211 µM
# [5] = HPLM + 10% dialyzed FBS, 0.0632 µM
# [6] = HPLM + 10% dialyzed FBS, 0.19 µM
# [7] = HPLM + 10% dialyzed FBS, 0.569 µM
# [8] = HPLM + 10% dialyzed FBS, 1.71 µM
# [9] = HPLM + 10% dialyzed FBS, 5.12 µM
# [10] = HPLM + 10% dialyzed FBS, 15.4 µM
# [11] = HPLM + 10% dialyzed FBS, 46.1 µM
# [12] = RPMI 5 mM glucose + 10% FBS, 0.000781 µM
# [13] = RPMI 5 mM glucose + 10% FBS, 0.00234 µM
# [14] = RPMI 5 mM glucose + 10% FBS, 0.00702 µM
# [15] = RPMI 5 mM glucose + 10% FBS, 0.0211 µM
# [16] = RPMI 5 mM glucose + 10% FBS, 0.0632 µM
# [17] = RPMI 5 mM glucose + 10% FBS, 0.19 µM
# [18] = RPMI 5 mM glucose + 10% FBS, 0.569 µM
# [19] = RPMI 5 mM glucose + 10% FBS, 1.71 µM
# [20] = RPMI 5 mM glucose + 10% FBS, 5.12 µM
# [21] = RPMI 5 mM glucose + 10% FBS, 15.4 µM
# [22] = RPMI 5 mM glucose + 10% FBS, 46.1 µM
# [23] = RPMI 5 mM glucose + 10% dialyzed FBS, 0.000781 µM
# [24] = RPMI 5 mM glucose + 10% dialyzed FBS, 0.00234 µM
# [25] = RPMI 5 mM glucose + 10% dialyzed FBS, 0.00702 µM
# [26] = RPMI 5 mM glucose + 10% dialyzed FBS, 0.0211 µM
# [27] = RPMI 5 mM glucose + 10% dialyzed FBS, 0.0632 µM
# [28] = RPMI 5 mM glucose + 10% dialyzed FBS, 0.19 µM
# [29] = RPMI 5 mM glucose + 10% dialyzed FBS, 0.569 µM
# [30] = RPMI 5 mM glucose + 10% dialyzed FBS, 1.71 µM
# [31] = RPMI 5 mM glucose + 10% dialyzed FBS, 5.12 µM
# [32] = RPMI 5 mM glucose + 10% dialyzed FBS, 15.4 µM
# [33] = RPMI 5 mM glucose + 10% dialyzed FBS, 46.1 µM
Structure (SMILES),cell viability [1] [%],cell viability [2] [%],cell viability [3] [%],cell viability [4] [%],cell viability [5] [%],cell viability [6] [%],cell viability [7] [%],cell viability [8] [%],cell viability [9] [%],cell viability [10] [%],cell viability [11] [%],cell viability [12] [%],cell viability [13] [%],cell viability [14] [%],cell viability [15] [%],cell viability [16] [%],cell viability [17] [%],cell viability [18] [%],cell viability [19] [%],cell viability [20] [%],cell viability [21] [%],cell viability [22] [%],cell viability [23] [%],cell viability [24] [%],cell viability [25] [%],cell viability [26] [%],cell viability [27] [%],cell viability [28] [%],cell viability [29] [%],cell viability [30] [%],cell viability [31] [%],cell viability [32] [%],cell viability [33] [%]
CC(=O)N[C@@H]1[C@@H](NC(N)=N)\C=C(/O[C@H]1[C@H](O)[C@H](O)CO)C(O)=O,78.4,89.6,98.1,107,107,123,40.2,106,112,98.6,95.4,80.1,90.1,125,98.6,89,129,49.5,128,136,119,110,64.5,82.9,117,102,126,122,38.4,120,121,110,113
O=C(NCCCCN1CCOCC1)c1cc2ccccc2o1,–,–,–,–,–,–,–,–,–,–,–,102,122,112,123,121,114,96.6,93.6,99.9,92.8,98.4,–,–,–,–,–,–,–,–,–,–,–
CC[C@@H]1[C@@H](C)O[C@@](O)([C@@H](C)[C@H](O)[C@H](C)[C@H]2OC(=O)/C=C/C=C/[C@H](C)[C@@H]([C@@H](C)[C@@H](O)[C@H](C)[C@@]3(O)C[C@@H](O[C@H]4C[C@H](O)[C@H](O)[C@H](C)O4)[C@H](CC)[C@@H](C)O3)OC(=O)/C=C/C=C/[C@@H]2C)C[C@H]1O[C@H]1C[C@H](O)[C@H](O)[C@H](C)O1,98.9,114,115,104,130,113,105,101,6.3,29.3,5.37,113,106,125,101,109,114,101,88.9,7.21,11.6,4.01,112,121,108,118,113,128,92.3,77.1,7.23,19,4.96
Cc1ccccc1C(OCCN(C)C)c1ccccc1 (stereo unspecified),102,95.2,106,101,105,119,120,115,117,117,99.1,105,108,128,115,98.9,109,124,121,107,103,99.4,99.3,109,116,120,124,125,122,130,121,115,114
N\C1=N\C2=C(N=C[N]2COCCO)C(=O)N1,93.7,101,97.2,103,100,99.7,111,104,89.5,77.3,60.5,87,107,106,112,101,104,115,117,106,93.4,56.5,83,93.9,95.9,94.3,95.1,115,90.1,101,88.2,73.3,44.8
CCC[S+](=O)([O-])Nc1ccc(F)c(C(=O)c2c[nH]c3ncc(Cl)cc23)c1F,108,137,121,123,123,121,129,103,107,17.9,9.67,–,–,–,–,–,–,–,–,–,–,–,107,120,117,121,132,131,122,120,121,46.9,9.16
CO[C@@]12[C@H](COC(N)=O)C/3=C(N1C[C@@H]4N[C@H]24)/C(=O)/C(=C(N)\C3=O)C,123,123,123,114,115,115,125,121,95.7,108,81.7,91.7,97.2,90.7,96.2,90,97.1,75.5,95.3,86.5,92.2,74,131,121,124,112,121,112,116,125,118,114,85.3
CCOC(=O)N1c2ccc(C(F)(F)F)cc2[C@@H](N(Cc2cc(C(F)(F)F)cc(C(F)(F)F)c2)C(=O)OC)C[C@H]1CC,121,111,124,124,117,113,105,113,109,125,109,104,108,115,121,116,110,103,109,109,103,97.3,118,108,118,113,129,113,118,117,120,127,116
